The numbers were not newly measured in patent publication US20210100738A1, “OXYGEN DELIVERY BEVERAGE” (RESPIROGEN, INC., priority 2018, published 2021), which cites them from elsewhere.

Each structure is given as a SMILES string.

For this data set the following is noted: oral co-administration of lipids, in mammals.

In the case of `C=C(C)[C@@H]1CCC(C)=C[C@H]1c1c(O)cc(CCCCC)cc1O` [CBD, cannabidiol], the increase in bioavailability is roughly 3 fold.

On to `CCCCCc1cc(O)c2c(c1)OC(C)(C)[C@@H]1CCC(C)=C[C@@H]21` [THC, Δ^9-tetrahydrocannabinol], for which the increase in bioavailability entry is recorded as “more than 2.5 fold”.
